Consider 19 molecules from US20250188075A1, “SUBSTITUTED HETEROCYCLIC CSNK1 INHIBITORS” (The Broad Institute, Inc., priority 2022, published 2025).

SMILES strings stand for the structures.

The target of one assay is human CSNK1D (Homo sapiens (Human), UniProt P48730). Kind of assay: CSNK1D assay (ADP-Glo, 1 μM ATP). The assay is classed as biochemical. The following applies: median, read-out: CSNK1D IC50 [mol/l] (median). On the procedure: CSNK1D-inhibitory activity of compounds of the present invention in presence of 1 μM adenosine-tri-phosphate (ATP) was quantified employing the CSNK1D assay as described in the following paragraphs. In essence, the enzyme activity is measured by quantification of the adenosine-di-phosphate (ADP), which is generated as a co-product of the enzyme reaction, via the “ADP-Glo™ Kinase Assay” kit from the company Promega. This detection system works as follows: In a first step the ATP not consumed in the kinase reaction is quantitatively converted to CAMP employing an adenylate cyclase (“ADP-Glo-reagent”), then the adenylate cyclase is stopped and the ADP generated in the kinase reaction converted to ATP which generates in a luciferase-based reaction a glow-luminescence signal (“Kinase Detection Reagent”).
Chain of human CSNK1D (P48730 whole entry): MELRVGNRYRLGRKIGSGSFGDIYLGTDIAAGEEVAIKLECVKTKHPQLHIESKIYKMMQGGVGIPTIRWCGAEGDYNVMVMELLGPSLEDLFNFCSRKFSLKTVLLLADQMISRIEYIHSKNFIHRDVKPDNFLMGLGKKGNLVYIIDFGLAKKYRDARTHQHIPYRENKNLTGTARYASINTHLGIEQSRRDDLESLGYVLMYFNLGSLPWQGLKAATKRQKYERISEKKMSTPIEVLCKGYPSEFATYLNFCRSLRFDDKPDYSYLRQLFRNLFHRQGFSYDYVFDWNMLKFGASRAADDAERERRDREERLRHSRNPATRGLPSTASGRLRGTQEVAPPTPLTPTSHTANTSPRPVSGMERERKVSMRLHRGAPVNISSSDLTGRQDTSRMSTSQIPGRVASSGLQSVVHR
Recombinant fusion protein of N-terminal Glutathion-S-Transferase (GST) and full-length human CSNK1D, expressed by baculovirus infected insect cells and purified via Glutathion affinity chromatography, was purchased from Life Technologies (product no. PV3665) and used as enzyme. As substrate for the kinase reaction the biotinylated peptide Btn-Ahx-SGSEGDSESGEEEG (C-terminus in amide form) was used which can be purchased e.g. from the company Biosyntan (Berlin-Buch, Germany).
For the assay 50 nl of a 100-fold concentrated solution of the test compound in DMSO was pipetted into a white 1536-well microtiter plate (Greiner Bio-One, Frickenhausen, Germany), 2 μL of a solution of CSNK1D in aqueous assay buffer [50 mM HEPES pH 7.5, 10% (v/v) glycerol, 10 mM MgCl2, 50 mM NaCl, 1 mM dithiothreitol, 0.01% (w/v) bovine serum albumin, 0.01% (v/v) Triton X-100] were added and the mixture was incubated for 15 min at 22° C. to allow pre-binding of the test compounds to the enzyme before the start of the kinase reaction. Then the kinase reaction was started by the addition of 3 μL of a solution of ATP (1.67 μM=>final conc. in the 5 μL assay volume is 1 μM) and peptide substrate (50 μM=>final conc. in the 5 μL assay volume is 30 μM) in assay buffer and the resulting mixture was incubated for a reaction time of 30 min at 22° C. The concentration of CSNK1D was adjusted depending of the activity of the enzyme lot and was chosen appropriate to have the assay in the linear range, a typical concentration is about 0.5 ng/μL. The reaction was stopped by the addition of 2.5 μL of “ADP-Glo-reagent” (1:1.5 fold diluted with water) and the resulting mixture was incubated at 22° C. for 1 h to convert the ATP not consumed in the kinase reaction completely to CAMP. Subsequently 2.5 μL of the “kinase detection reagent” (1.2 fold more concentrated than recommended by the producer) were added, the resulting mixture was incubated at 22° C. for 1 h and then the luminescence measured with a suitable measurement instrument (e.g. Viewlux™ from Perkin-Elmer). The amount of emitted light was taken as a measure for the amount of ADP generated and thereby for the activity of the CSNK1D.
(§1) The data were normalised (enzyme reaction without inhibitor=0% inhibition, all other assay components but no enzyme=100% inhibition).
In general terms: In ADP-Glo the light output rises with the ADP produced.

The next assay deals with human CSNK1G3 (Homo sapiens (Human), UniProt Q9Y6M4). Description: CSNK1G3 assay (ADP-Glo). It is filed as biochemical. The following applies: median, read-out: CSNK1G IC50 [mol/l] (median). As for the experimental part: CSNK1G3-inhibitory activity of compounds of the present invention in presence of 1 μM adenosine-tri-phosphate (ATP) was quantified employing the CSNK1G3 assay as described in the following paragraphs. In essence, the enzyme activity is measured by quantification of the adenosine-di-phosphate (ADP), which is generated as a co-product of the enzyme reaction, via the “ADP-Glo™ Kinase Assay” kit from the company Promega. This detection system works as follows: In a first step the ATP not consumed in the kinase reaction is quantitatively converted to CAMP employing an adenylate cyclase (“ADP-Glo-reagent”), then the adenylate cyclase is stopped and the ADP generated in the kinase reaction converted to ATP which generates in a luciferase-based reaction a glow-luminescence signal (“Kinase Detection Reagent”).
Chain of human CSNK1G3 (Q9Y6M4 whole entry): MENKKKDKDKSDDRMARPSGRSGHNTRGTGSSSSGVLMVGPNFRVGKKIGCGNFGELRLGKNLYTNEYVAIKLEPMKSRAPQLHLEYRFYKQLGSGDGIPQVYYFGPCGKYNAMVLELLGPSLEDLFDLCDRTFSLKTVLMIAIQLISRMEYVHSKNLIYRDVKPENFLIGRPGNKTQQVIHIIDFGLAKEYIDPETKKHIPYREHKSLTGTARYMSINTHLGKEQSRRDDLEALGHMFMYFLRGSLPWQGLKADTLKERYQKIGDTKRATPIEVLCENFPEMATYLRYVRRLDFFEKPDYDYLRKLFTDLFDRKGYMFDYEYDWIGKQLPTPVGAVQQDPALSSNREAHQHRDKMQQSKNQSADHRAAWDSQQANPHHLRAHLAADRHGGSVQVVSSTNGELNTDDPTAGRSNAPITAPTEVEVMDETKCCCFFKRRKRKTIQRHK
Recombinant fusion protein of N-terminal Glutathion-S-Transferase (GST) and full-length human CSNK1G3, expressed by baculovirus infected insect cells and purified via Glutathion affinity chromatography, was purchased from Life Technologies (product no. PV3838) and used as enzyme. As substrate for the kinase reaction the biotinylated peptide biotin-Ahx-KRRRAL-pS-VASLPGL (C-terminus in amide form) was used which can be purchased e.g. from the company Biosyntan (Berlin-Buch, Germany).
For the assay 50 nl of a 100 fold concentrated solution of the test compound in DMSO was pipetted into a white 1536-well microtiter plate (Greiner Bio-One, Frickenhausen, Germany), 2 μL of a solution of CSNK1G3 in aqueous assay buffer [50 mM HEPES pH 7.5, 10% (v/v) glycerol, 10 mM MgCl2, 50 mM NaCl, 1 mM dithiothreitol, 0.01% (w/v) bovine serum albumin, 0.01% (v/v) Triton X-100] were added and the mixture was incubated for 15 min at 22° C. to allow pre-binding of the test compounds to the enzyme before the start of the kinase reaction. Then the kinase reaction was started by the addition of 3 μL of a solution of ATP ([…]=>final conc. in the 5 μL assay volume is 1 M) and peptide substrate (50 μM=>final conc. in the 5 μL assay volume is 30 μM) in assay buffer and the resulting mixture was incubated for a reaction time of 30 min at 22° C. The concentration of CSNK1G3 was adjusted depending of the activity of the enzyme lot and was chosen appropriate to have the assay in the linear range, a typical concentration is about 0.06 ng/μL. The reaction was stopped by the addition of 2.5 μL of “ADP-Glo-reagent” (1:1.5 fold diluted with water) and the resulting mixture was incubated at 22° C. for 1 h to convert the ATP not consumed in the kinase reaction completely to CAMP. Subsequently 2.5 μL of the “kinase detection reagent” (1.2 fold more concentrated than recommended by the producer) were added, the resulting mixture was incubated at 22° C. for 1 h and then the luminescence measured with a suitable measurement instrument (e.g. Viewlux™ from Perkin-Elmer). The amount of emitted light was taken as a measure for the amount of ADP generated and thereby for the activity of the CSNK1G3.
as §1

As to `O=C(Cc1cnc2ccccc2n1)Nc1cc(-c2[nH]c3cccnc3c2-c2ccccn2)ccn1` [Example 6, N-[4-[3-(2-pyridyl)-^1H-pyrrolo[3,2-b]pyridin-2-yl]-2-pyridyl]-2-quinoxalin-2-yl-acetamide], the IC50 was found to be 3.44 nM on human CSNK1D and 7.89 nM on human CSNK1G3.

Turning to `O=C(Cc1cc2ccccn2n1)Nc1cc(-c2[nH]c3cccnc3c2-c2ccccn2)ccn1` [Example 15, 2-pyrazolo[1,5-a]pyridin-2-yl-N-[4-[3-(2-pyridyl)-^1H-pyrrolo[3,2-b]pyridin-2-yl]-2-pyridyl]acetamide], the IC50 at human CSNK1D came to 3.75 nM; at human CSNK1G3 it was 10.3 nM.

Take `O=C(Cc1ccon1)Nc1cc(-c2[nH]c3cccnc3c2-c2ccccn2)ccn1` [Example 10, 2-isoxazol-3-yl-N-[4-[3-(2-pyridyl)-^1H-pyrrolo[3,2-b]pyridin-2-yl]-2-pyridyl]acetamide]: the IC50 at human CSNK1D was 5.6 nM; at human CSNK1G3 it was 33 nM.

With `Cc1cc(CC(=O)Nc2cc(-c3[nH]c4cccnc4c3-c3ccccn3)ccn2)on1` [Example 13, 2-(3-methylisoxazol-5-yl)-N-[4-[3-(2-pyridyl)-^1H-pyrrolo[3,2-b]pyridin-2-yl]-2-pyridyl]acetamide], the IC50 turned out to be 5.68 nM on human CSNK1D and 28.6 nM on human CSNK1G3.

Turning to `O=C(Nc1cc(-c2[nH]c3c(OCC(F)F)ncnc3c2-c2ccccn2)ccn1)[C@@H](CC(F)F)c1ccc(F)cc1` [Example C3, reference compound], the IC50 at human CSNK1D stood at 3.27 nM; on human CSNK1G3 it was 6.22 nM.

Take `O=C(Cc1ccno1)Nc1cc(-c2[nH]c3cccnc3c2-c2ccccn2)ccn1` [Example 23, 2-isoxazol-5-yl-N-[4-[3-(2-pyridyl)-^1H-pyrrolo[3,2-b]pyridin-2-yl]-2-pyridyl]acetamide]: the IC50 at human CSNK1D stood at 4.68 nM; on human CSNK1G3, 27.3 nM.

As for `Cc1noc(C)c1CC(=O)Nc1cc(-c2[nH]c3cccnc3c2-c2ccccn2)ccn1` [Example 12, 2-(3,5-dimethylisoxazol-4-yl)-N-[4-[3-(2-pyridyl)-^1H-pyrrolo[3,2-b]pyridin-2-yl]-2-pyridyl]acetamide], the IC50 stood at 5.02 nM at human CSNK1D and 62.6 nM at human CSNK1G3.

For the molecule `O=C(Cc1ccns1)Nc1cc(-c2[nH]c3cccnc3c2-c2ccccn2)ccn1` [Example 22, 2-isothiazol-5-yl-N-[4-[3-(2-pyridyl)-^1H-pyrrolo[3,2-b]pyridin-2-yl]-2-pyridyl]acetamide], the IC50 at human CSNK1D worked out at 4.84 nM; on human CSNK1G3, 27 nM.

For the molecule `Cc1cc(CC(=O)Nc2cc(-c3[nH]c4cccnc4c3-c3ccccn3)ccn2)n(C)n1` [Example 14], the IC50 at human CSNK1D turned out to be 4.88 nM; at human CSNK1G3, 35.4 nM.

As for `CC(C)n1ccc(CC(=O)Nc2cc(-c3[nH]c4cccnc4c3-c3ccccn3)ccn2)n1` [Example 28, 2-(1-isopropylpyrazol-3-yl)-N-[4-[3-(2-pyridyl)-^1H-pyrrolo[3,2-b]pyridin-2-yl]-2-pyridyl]acetamide], the figures for the IC50 on human CSNK1D and at human CSNK1G3 were 6.3 nM and 20.4 nM, respectively.

`Cc1nn(C)c(C)c1CC(=O)Nc1cc(-c2[nH]c3cccnc3c2-c2ccccn2)ccn1` [Example 17, N-[4-[3-(2-pyridyl)-^1H-pyrrolo[3,2-b]pyridin-2-yl]-2-pyridyl]-2-(1,3,5-trimethylpyrazol-4-yl)acetamide]: the figures for the IC50 on human CSNK1D and on human CSNK1G3 were 6.87 nM and 68.2 nM, respectively.

On to `Cc1cc(CC(=O)Nc2cc(-c3[nH]c4cccnc4c3-c3ccccn3)ccn2)nn1C` [Example 16, 2-(1,5-dimethylpyrazol-3-yl)-N-[4-[3-(2-pyridyl)-^1H-pyrrolo[3,2-b]pyridin-2-yl]-2-pyridyl]acetamide], for which the IC50 at human CSNK1D stood at 6.57 nM; on human CSNK1G3 it was 31.7 nM.

Consider `Cn1nc(CC(=O)Nc2cc(-c3[nH]c4cccnc4c3-c3ccccn3)ccn2)cc1C1CC1` [Example 29, 2-(5-cyclopropyl-1-methyl-pyrazol-3-yl)-N-[4-[3-(2-pyridyl)-^1H-pyrrolo[3,2-b]pyridin-2-yl]-2-pyridyl]acetamide], for which the IC50 was 6.48 nM at human CSNK1D and 27.4 nM at human CSNK1G3.

For the molecule `Cc1nc(CC(=O)Nc2cc(-c3[nH]c4cccnc4c3-c3ccccn3)ccn2)cs1` [Example 3, 2-(2-methylthiazol-4-yl)-N-[4-[3-(2-pyridyl)-^1H-pyrrolo[3,2-b]pyridin-2-yl]-2-pyridyl]acetamide], the IC50 at human CSNK1D was found to be 5.01 nM; on human CSNK1G3, 39.1 nM.

With `Cn1nc(CC(=O)Nc2cc(-c3[nH]c4cccnc4c3-c3ccccn3)ccn2)cc1C(F)(F)F` [Example 21, 2-[1-methyl-5-(trifluoromethyl)pyrazol-3-yl]-N-[4-[3-(2-pyridyl)-^1H-pyrrolo[3,2-b]pyridin-2-yl]-2-pyridyl]acetamide], the IC50 was determined as 4.88 nM on human CSNK1D and 29.7 nM on human CSNK1G3.

As for `Cc1ncc(CC(=O)Nc2cc(-c3[nH]c4cccnc4c3-c3ccccn3)ccn2)o1` [Example 24, 2-(2-methyloxazol-5-yl)-N-[4-[3-(2-pyridyl)-^1H-pyrrolo[3,2-b]pyridin-2-yl]-2-pyridyl]acetamide], the values for the IC50 on human CSNK1D and on human CSNK1G3 were 5.37 nM and 39.9 nM, respectively.

With `O=C(Cc1cc(C2CC2)on1)Nc1cc(-c2[nH]c3cccnc3c2-c2ccccn2)ccn1` [Example 27, 2-(5-cyclopropylisoxazol-3-yl)-N-[4-[3-(2-pyridyl)-^1H-pyrrolo[3,2-b]pyridin-2-yl]-2-pyridyl]acetamide], the figures for the IC50 on human CSNK1D and at human CSNK1G3 were 6.38 nM and 19.7 nM, respectively.

As to `Cc1nc(CC(=O)Nc2cc(-c3[nH]c4cccnc4c3-c3ccccn3)ccn2)co1` [Example 25, 2-(2-methyloxazol-4-yl)-N-[4-[3-(2-pyridyl)-^1H-pyrrolo[3,2-b]pyridin-2-yl]-2-pyridyl]acetamide], the IC50 is 8.44 nM on human CSNK1D and 64.4 nM at human CSNK1G3.

As to `Cn1cnc(CC(=O)Nc2cc(-c3[nH]c4cccnc4c3-c3ccccn3)ccn2)c1` [Example 5, 2-(1-methylimidazol-4-yl)-N-[4-[3-(2-pyridyl)-^1H-pyrrolo[3,2-b]pyridin-2-yl]-2-pyridyl]acetamide], the results for the IC50 on human CSNK1D and at human CSNK1G3 were 13.1 nM and 74.5 nM, respectively.
